Data published in article PMC6430684 (Cell chemical biology, 2019).

Biological target: HSP90α (Homo sapiens, UniProt P07900)
Assay: competitive fluorescence polarization with geldanamycin-FITC
Assay type: binding

IC50: 29.5 nM
Structure (SMILES): O=C1C=C(Nc2ccc3cnccc3c2)c2ccccc2C1=O [YZ129, 4-(isoquinolin-6-ylamino)naphthalene-1,2-dione]
